Where “and” joins values, the source holds several entries; their conditions need not be identical. Equal values may be shown once. Read-outs that look alike come from different tables or passages of the source. Square brackets hold non-standard residues; d marks the D form. Ends that are not written are not given here. Peptide text beside a SMILES is read from it. * marks the point of attachment. X1 = CC(=O)N[C@H]1[C@H](OCCn2cc(C*)nn2)O[C@H](CO)[C@@H](O[C@@H]2O[C@H](CO)[C@H](O)[C@H](O[C@]3(C(=O)O)C[C@H](O)[C@@H](NC(C)=O)[C@H]([C@H](O)[C@H](O)CO)O3)[C@H]2O)[C@@H]1O[C@@H]1O[C@@H](C)[C@@H](O)[C@@H](O)[C@@H]1O; Phe(4-CH2SO3H) = N[C@@H](Cc1ccc(CS(=O)(=O)O)cc1)C(=O)O
Key:
in vivo = settings: C57BL/6, mouse, iv, 8 umol/kg
Method: The supernatant (80 μL) was dried in vacuo, reconstituted in nanopure water (32 μL), and an aliquot (2 μL) was injected for pre-concentration at a flow rate of 5 μL/min using an UltiMate 3000 RSLCnano ultra-high-performance liquid chromatography (UHPLC) system (Dionex) coupled to an Orbitrap Fusion Lumos mass spectrometer (Thermo Fisher Scientific). […] Following in-source fragmentation (ISF), m/z 1121.09 (z=3) was used as the quantifying peptide. Peak areas from the extracted chromatograms were used for quantification. […] Compound half-life was determined using non-compartmental analysis.

[1] = test system: platelet-leukocyte aggregates; test: Platelet-leukocyte aggregation in mouse whole blood (PAR4-activating peptide), flow cytometry; assay type: cell-based; settings: 120 μM
Method: (§1) Platelet-leukocyte aggregates were quantified in whole blood using dual-label flow cytometry (CytoFlex LX, Beckman Coulter). […] Platelet-leukocyte aggregates were quantified by two-color flow cytometry by incubating human samples with anti-CD45-APC (BD Biosciences) and anti-CD42a-FITC (BD Biosciences) and mouse samples with anti-CD45-eFluor506 (Invitrogen), anti-CD11b-APC (BD Biosciences), anti-Ly-6G-PE (BD Biosciences), and anti-CD41-FITC (BD Biosciences). […] Inhibition experiments were conducted in triplicate.
(§2) PSGL-1/P-selectin binding are responsible for the generation of platelet-leukocyte aggregates, which leads to the release of neutrophil extracellular traps and other procoagulant factors, as well as the infiltration of leukocytes (86, 87).

[2] = test system: CHO131, a monoclonal antibody specific to the Core 2 O-glycan terminated sLe^x; test: Glycopeptide microarray binding assay, CHO131
Method: (§3) For a multi-panel experiment on a single slide, the array layout was designed using Piezoarray software according to the dimension of a standard 14-chamber adaptor. The adaptor was applied on the slide to separate a single slide to 14 chambers sealed from each other during the experiment. All glycopeptides and control samples were printed on an NHS-activated glass slide in phosphate buffer (300 mM sodium phosphates, pH 8.5). The average spot volume was within 10% variation (intra-tip) of 0.33 nL. The average spot size was 100 μm. […] These AEAB derivatives and control biotin-NHNH2, all at 50 μM concentration, were printed on the microarray as controls and reference standards. After printing, the slide was placed in a high moisture chamber at 50° C. and incubated for 1 h. The slide was subsequently washed and blocked with 50 mM ethanolamine in 0.1 M Tris buffer (pH 8.0) for 1 h, dried by centrifugation, and stored desiccated at −20° C. prior to use. […] The scanned images were analyzed using ScanArray Express software.
(§4) The binding affinity of G4 towards P-selectin was initially screened using microarray technology. G4 along with 11 additional structural variants and synthetic intermediates, as well as five glycan standards (sLe^x, NA2, NA2,3, NA2,6, asialobiantennary, asialotetra-saccharide) were printed on an NHS-activated glass slide (FIGS. 7A-7C). […]

human P-selectin [3] = test: Glycopeptide microarray binding assay, P-selectin; settings: human P-selectin 5 μg/mL; compounds at 50 μM
Method: as §3
(§5) The binding affinity of G4 towards P-selectin was initially screened using microarray technology. G4 along with 11 additional structural variants and synthetic intermediates, as well as […] glycan standards (sLe^x, NA2, NA2,3, NA2,6, asialobiantennary, asialotetra-saccharide) were printed on an NHS-activated glass slide (FIGS. 7A-7C). The slide was then incubated with a recombinant immunoglobulin (Ig) chimera of P-sel (5 μg mL^−1) or monoclonal antibodies, PL1, specific to the N-terminal PSGL-1 peptide sequence, CHO131, specific to the Core 2 O-glycan terminated with sLe^X, or HECA-452, specific to sLe^x. The array was then washed and incubated with Alexa-488-labelled anti-human IgG antibody (5 μg/mL). […] Of note, the PL1 epitope spans residues 49-62, which includes the key sequence -L-P-E-T-E-P- (84). Thus, modification of the key T residue within the PL1 epitope alters PL1 binding, but not P-selectin binding. Binding of glycopeptide mimics was Ca2^+ dependent and inhibited by EDTA.

[4] = test system: HECA-452, a monoclonal antibody specific to sLe^x; test: Glycopeptide microarray binding assay, HECA-452
Method: as §3, §5

[5] = test system: platelet-leukocyte aggregates; test: Platelet-leukocyte aggregation in human whole blood (PAR1-activating peptide), flow cytometry; assay type: cell-based; settings: 120 μM
Method: as §1, §2

[6] = target: T1, murine P-selectin-Fc chimera (Mus musculus, UniProt Q01102); test: Flow cytometry inhibition of P-selectin-Fc chimera binding to murine leukocytes; assay type: cell-based; settings: P-selectin-Fc chimera 3 μg/mL
T1 construct: purchased R&D Systems
Method: Flow cytometry was used to quantify binding inhibition of P-selectin-Fc chimeras to human and murine leukocytes. Heparinized whole mouse blood was collected via cardiac puncture and human blood from healthy adult volunteers was collected in citrate. Leukocytes were isolated by centrifugation at 800 g for 10 min at room temperature, platelets removed by centrifugation at 120 g for 10 min at room temperature, and red blood cells lysed using red blood cell (RBC) lysis buffer (eBiosciences). […] The interaction of P-selectin with human and murine monocytes and neutrophils was analyzed by flow cytometry (CytoFlex LX, Beckman Coulter) and quantified as percent inhibition using FlowJo. Inhibition experiments were conducted in triplicate.
Binding of P-selectin was detected with phycoerythrin (PE)-conjugated anti-Fc antibody and quantified as mean fluorescent intensity and plotted as percent inhibition.

[7] = test system: PL1, a monoclonal antibody specific to the N-terminal PSGL-1 peptide sequence; test: Glycopeptide microarray binding assay, PL1
Method: as §3, §4

P-selectin [8] = target: T2, P-selectin (Homo sapiens, UniProt P16109); settings: literature values; cited from earlier work
T2 sequence (P16109 42-830): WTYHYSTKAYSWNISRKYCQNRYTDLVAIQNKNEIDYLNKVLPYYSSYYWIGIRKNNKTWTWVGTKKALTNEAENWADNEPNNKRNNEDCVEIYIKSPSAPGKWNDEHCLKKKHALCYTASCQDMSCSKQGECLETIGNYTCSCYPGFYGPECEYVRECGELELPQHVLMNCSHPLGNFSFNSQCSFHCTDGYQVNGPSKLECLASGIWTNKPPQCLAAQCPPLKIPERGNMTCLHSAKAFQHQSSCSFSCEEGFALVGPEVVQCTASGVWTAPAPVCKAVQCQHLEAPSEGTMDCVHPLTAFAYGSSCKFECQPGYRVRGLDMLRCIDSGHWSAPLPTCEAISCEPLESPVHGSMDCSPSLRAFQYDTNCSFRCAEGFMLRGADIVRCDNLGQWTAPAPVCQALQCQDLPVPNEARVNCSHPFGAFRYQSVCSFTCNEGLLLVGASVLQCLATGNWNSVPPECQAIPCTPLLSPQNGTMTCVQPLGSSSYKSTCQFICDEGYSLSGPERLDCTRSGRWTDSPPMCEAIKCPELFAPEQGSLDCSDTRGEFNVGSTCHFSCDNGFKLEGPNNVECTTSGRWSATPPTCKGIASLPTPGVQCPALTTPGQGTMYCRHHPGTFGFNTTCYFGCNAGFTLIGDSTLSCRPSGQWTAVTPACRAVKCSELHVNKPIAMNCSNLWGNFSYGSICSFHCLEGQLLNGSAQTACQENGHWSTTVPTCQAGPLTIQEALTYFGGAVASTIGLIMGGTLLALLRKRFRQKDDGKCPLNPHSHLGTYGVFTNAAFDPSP

human P-selectin [9] = test: Biacore surface plasmon resonance binding assay (biotinylated ligand captured, P-selectin-Ig flowed); settings: human P-selectin-Ig 0.4-100 nM
Method: Biotinylated G4 was first captured quantitatively on a streptavidin-coated sensor chip (GE Healthcare). Different amounts of P-selectin-Ig chimera (P-Sel-Ig) were incubated in the wells (0.4-100 nM) and bound P-selectin detected using fluorescently labelled anti-human IgG. PL1 and CHO131 were used to confirm the immobilization step and to compare the relative amount of glycopeptide on the chip. Bound monoclonal antibodies and P-selectin were removed from the sensor chip by injecting 10 mM glycine-HCl, pH 2.0 and 50 mM EDTA, respectively, at 20 μL/min for 30 s. The kinetic parameters were obtained by plotting the curves using a 1:1 binding model provided by the Biacore evaluation software.

P-selectin [10] = target: T2, P-selectin; settings: reported values; cited from earlier work
venous thrombus = test: Murine model of non-occlusive venous thrombosis (electrolytic injury of the inferior vena cava); assay type: in vivo, C57BL/6 mice; settings: 48 h after injury; glycopeptide 8 μmol/kg IV, LMWH (enoxaparin) 6 mg/kg SC
Excerpt: Venous side branches were ligated or cauterized, while posterior branches were left patent. A 25-gauge stainless steel needle, attached to a silver-coated copper wire was inserted into the exposed caudal vena cava and positioned against the anterior wall (anode). […] Subsequently, the needle was removed and a cotton swab held in gentle contact with the puncture site to prevent bleeding.

T1 sequence (Q01102 with tags, fused parts or gaps limits assumed): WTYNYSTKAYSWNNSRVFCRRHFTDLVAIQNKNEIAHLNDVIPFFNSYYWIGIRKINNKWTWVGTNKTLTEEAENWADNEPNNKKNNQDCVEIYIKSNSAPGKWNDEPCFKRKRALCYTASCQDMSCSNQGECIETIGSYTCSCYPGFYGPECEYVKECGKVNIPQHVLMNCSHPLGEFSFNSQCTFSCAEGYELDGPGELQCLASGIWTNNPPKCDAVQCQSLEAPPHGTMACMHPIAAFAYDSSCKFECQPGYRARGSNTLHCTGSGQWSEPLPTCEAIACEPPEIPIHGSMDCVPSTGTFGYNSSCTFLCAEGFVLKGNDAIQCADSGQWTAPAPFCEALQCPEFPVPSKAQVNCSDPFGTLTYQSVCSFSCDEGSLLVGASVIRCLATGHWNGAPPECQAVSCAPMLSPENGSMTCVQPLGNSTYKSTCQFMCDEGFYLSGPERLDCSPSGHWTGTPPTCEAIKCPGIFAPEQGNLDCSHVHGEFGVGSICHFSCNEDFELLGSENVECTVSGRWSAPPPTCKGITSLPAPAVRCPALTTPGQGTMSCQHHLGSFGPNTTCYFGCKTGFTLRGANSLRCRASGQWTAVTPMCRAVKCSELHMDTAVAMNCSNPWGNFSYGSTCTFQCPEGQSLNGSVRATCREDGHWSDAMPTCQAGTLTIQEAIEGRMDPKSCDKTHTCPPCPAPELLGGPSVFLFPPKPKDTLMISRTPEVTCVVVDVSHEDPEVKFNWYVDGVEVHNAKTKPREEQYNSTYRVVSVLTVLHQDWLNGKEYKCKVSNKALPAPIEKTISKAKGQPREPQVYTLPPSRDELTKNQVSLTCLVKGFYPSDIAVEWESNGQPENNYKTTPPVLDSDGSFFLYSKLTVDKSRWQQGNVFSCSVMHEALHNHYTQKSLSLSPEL

Which half-life (in vivo) does the source give for CC(=O)N[C@H]1[C@H](OCCn2cc(CO[C@H](C)[C@H](NC(=O)[C@H](CCC(=O)O)NC(=O)[C@@H]3CCCN3C(=O)[C@H](CC(C)C)NC(=O)[C@H](Cc3ccccc3)NC(=O)[C@H](CC(=O)O)NC(=O)[C@H](Cc3ccc(CS(=O)(=O)O)cc3)NC(=O)[C@H](CC(=O)O)NC(=O)[C@H](CC(C)C)NC(=O)[C@H](Cc3ccc(CS(=O)(=O)O)cc3)NC(=O)[C@H](CCC(=O)O)NC(=O)[C@H](Cc3ccc(CS(=O)(=O)O)cc3)NC(=O)[C@H](CCC(=O)O)NC(=O)[C@H](CCCCN)NC(C)=O)C(=O)N[C@@H](CCC(=O)O)C(=O)N3CCC[C@H]3C(=O)N[C@@H](CC(C)C)C(=O)O)nn2)O[C@H](CO)[C@@H](O[C@@H]2O[C@H](CO)[C@H](O)[C@H](O[C@]3(C(=O)O)C[C@H](O)[C@@H](NC(C)=O)[C@H]([C@H](O)[C@H](O)CO)O3)[C@H]2O)[C@@H]1O[C@@H]1O[C@@H](C)[C@@H](O)[C@@H](O)[C@@H]1O [G4, KEF*EF*LDF*DFLPET(Neu5Acα2-3Galβ1-4(Fucal-3)GlcNAc)EPL] (Ac-KE[Phe(4-CH2SO3H)]E[Phe(4-CH2SO3H)]LD[Phe(4-CH2SO3H)]DFLPET(X1)EPL-OH) here?
Its half-life is 13.2 ± 5.04 min.

What about the “Inhibition of murine platelet-monocyte aggregates” value [1] of the same compound?
Its value is 41%.

And the “Inhibition of murine platelet-neutrophil aggregates” value [1]?
Its value is 38%.

And the “Binding of CHO131 on microarray” value [2]?
The value was “neither PL1 or CHO131 bound”.

What about the “Binding to P-selectin on microarray” value (human P-selectin [3]) of the same compound?
Its value is “strongly bound”.

And the “Binding of HECA-452 on microarray” value [4]?
The value was “strongly bound”.

What about the “Inhibition of human platelet-monocyte aggregates” value [5] of the same compound?
Its value is 33%.

What about the “Inhibition of human platelet-neutrophil aggregates” value [5] of the same compound?
The value was 28%.

What about the IC50 ([6]; murine monocytes, read-out: IC50, P-selectin binding to murine monocytes) of the same compound?
The IC50 was 10 µM.

What about the IC50 ([6]; murine neutrophils, read-out: IC50, P-selectin binding to murine neutrophils) of the same compound?
The IC50 was 10 µM.

What about the “Binding of PL1 on microarray” value [7] of the same compound?
The value was “neither PL1 or CHO131 bound”.

Which IC50 (P-selectin [8]) does the source give for C[C@@H]1O[C@@H](O[C@@H]2[C@@H](NC(=O)c3cc(=O)[nH]c(=O)[nH]3)C[C@@H](C(=O)NCCNC(=O)COCCOCC(=O)Nc3cc(S(=O)(=O)O)cc4cc(S(=O)(=O)O)cc(S(=O)(=O)O)c34)C[C@H]2O[C@@H]2O[C@H](CO)[C@H](O)[C@H](O[C@@H](CC3CCCCC3)C(=O)O)[C@H]2OC(=O)c2ccccc2)[C@@H](O)[C@H](O)[C@@H]1O [GMI-1070] here?
Its IC50 is 423 µM.

Which IC50 (P-selectin [8]) does the source give for O=C(O)c1c(O)c(C2(c3ccc(Cl)cc3)CC2)nc2c(C(F)(F)F)cccc12 [PSI-421, 2-[1-(4-chlorophenyl)cyclopropyl]-3-hydroxy-8-(trifluoromethyl)quinoline-4-carboxylic acid] here?
The IC50 was 225 µM.

Which “Binding to P-selectin on microarray” value (human P-selectin [3]) does the source give for “EY*EY*LDY*DFLPET(Neu5Acα2-3Galβ1-4(Fucal-3)GlcNAcβ1-6Galβ1-3GalNAcα)EPPEM (EYEYLDYDFLPET(Neu5Acα2‑3Galβ1‑4(Fucal-3)GlcNAcβ1‑6Galβ1‑3GalNAcα)EPPEM; not fully specified (residues 2, 4, 7)) [GSP-6]” here?
The value was “strongly bound”.

And the “Binding of HECA-452 on microarray” value [4]?
The value was “strongly bound”.

What does the source list for “KEF*EF*LDF*DFLPET(Neu5Acα2-3Galβ1-4(Fucal-3)GlcNAcβ1-6(Galβ1-3)GalNAcα)EPL (KEFEFLDFDFLPET(Neu5Acα2‑3Galβ1‑4(Fucal-3)GlcNAcβ1‑6(Galβ1-3)GalNAcα)EPL; not fully specified (residues 3, 5, 8)) [GSnP-6, previously reported glycosulfonopeptide P-selectin antagonist, reference compound]”?
Kd (human P-selectin [9]): 0.027 µM; Binding to P-selectin on microarray (human P-selectin [3]): strongly bound; Binding of HECA-452 on microarray [4]: strongly bound; Kd (P-selectin [10]): 0.022 µM and 0.027 µM

With enoxaparin as the compound, how does the “venous thrombus formation / thrombus weight versus saline vehicle” value (venous thrombus) read?
The value was “significant reduction”.

Reference: US20240293553A1, “P-SELECTIN INHIBITORS AND USES THEREOF” (Beth Israel Deaconess Medical Center, Inc., priority 2021, published 2024)
